Experiments:
TNKS2 = target: T1, TNKS2 (Homo sapiens, UniProt Q9H2K2); assay: TNKS2 Assay B (auto-parsylation, [3H]-NAD+ SPA); type: biochemical; settings: 6 nM TNKS2, auto-parsylation, over night at room temperature
T1 construct: purchased BPS Bioscience, San Diego, USA 80572 (TNKS2 Histone Ribosylation Assay Kit)
T1 sequence (Q9H2K2 1-1166): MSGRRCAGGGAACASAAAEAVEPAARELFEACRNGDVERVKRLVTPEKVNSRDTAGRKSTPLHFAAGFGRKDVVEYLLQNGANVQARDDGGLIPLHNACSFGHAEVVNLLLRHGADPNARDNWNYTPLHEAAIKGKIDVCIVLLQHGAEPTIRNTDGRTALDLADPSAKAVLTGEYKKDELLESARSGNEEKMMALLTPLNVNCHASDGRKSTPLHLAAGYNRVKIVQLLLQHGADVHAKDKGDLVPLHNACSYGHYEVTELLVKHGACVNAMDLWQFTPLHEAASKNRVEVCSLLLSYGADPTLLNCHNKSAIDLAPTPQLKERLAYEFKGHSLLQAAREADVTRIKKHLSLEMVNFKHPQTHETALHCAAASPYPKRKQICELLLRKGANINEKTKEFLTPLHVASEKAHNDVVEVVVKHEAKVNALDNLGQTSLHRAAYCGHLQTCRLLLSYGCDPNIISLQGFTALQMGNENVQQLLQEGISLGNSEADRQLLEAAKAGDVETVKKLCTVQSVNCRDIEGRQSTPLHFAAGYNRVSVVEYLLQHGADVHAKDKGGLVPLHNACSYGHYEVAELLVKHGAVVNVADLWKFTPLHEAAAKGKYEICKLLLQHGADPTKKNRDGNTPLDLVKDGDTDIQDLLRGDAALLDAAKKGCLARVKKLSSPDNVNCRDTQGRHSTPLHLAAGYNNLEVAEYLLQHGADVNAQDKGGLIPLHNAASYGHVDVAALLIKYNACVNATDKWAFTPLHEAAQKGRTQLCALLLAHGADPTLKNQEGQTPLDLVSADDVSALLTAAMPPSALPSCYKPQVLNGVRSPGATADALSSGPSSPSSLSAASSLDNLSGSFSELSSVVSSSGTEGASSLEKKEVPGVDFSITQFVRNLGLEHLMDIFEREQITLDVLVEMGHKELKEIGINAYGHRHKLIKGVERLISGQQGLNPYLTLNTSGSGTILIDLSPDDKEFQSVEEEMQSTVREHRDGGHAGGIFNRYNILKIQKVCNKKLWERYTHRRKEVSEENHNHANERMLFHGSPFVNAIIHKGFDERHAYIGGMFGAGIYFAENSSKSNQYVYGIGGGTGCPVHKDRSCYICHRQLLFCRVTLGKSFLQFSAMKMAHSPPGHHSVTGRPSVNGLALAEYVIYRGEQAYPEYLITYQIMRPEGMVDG

[1] = system: wildtype Wnt signaling cascade; assay: HEK293 TOP assay (Super TopFlash luciferase reporter, Wnt-3a stimulated); type: cell-based; settings: Homo sapiens, HEK293 TOP reporter cells, Wnt3a at EC50, 16 hours
Outline: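 Compound series (50 μM down to 15 nM, 3.16-fold) diluted from DMSO 50-fold into CAFTY buffer, pH 7.4, 2 mM Ca^2+, 0.01% BSA, applied to Wnt-3a-stimulated HEK293 TopFlash and FOP reporter lines in parallel. Cells seeded 10000/well 24 h before; luciferase signal measured.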

[2] = system: HEK293 cells cotransfected with the FOP control vector; assay: HEK293 FOP assay (control reporter with non-functional TCF elements); type: cell-based; settings: Homo sapiens, 16 hours
Outline: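 Compound series from 50 μM down to 15 nM, prediluted in DMSO then 50-fold into CAFTY buffer (pH 7.4, 2 mM Ca2+, 0.01% BSA), tested alongside TOP cells on a Geneticin-selected HEK293 FOP line whose TCF elements are replaced by a random sequence; recombinant human Wnt-3a applied at 2500-5 ng/ml.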

SMILES	IC50 (TNKS2)	IC50 ([1]; HEK293, 16 h)	IC50 [2]	IC50 [1]
Cc1cc(N2CC[C@]3(CC[C@@H](NC(=O)c4[nH]cnc4C(=O)N4CCN(C)CC4)CC3)C2=O)c(Cl)cc1F [Example 294, N-[(trans)-2-(2-chloro-4-fluoro-5-methylphenyl)-1-oxo-2-azaspiro[4.5]dec-8-yl]-4-[(4-methylpiperazin-1-yl)carbonyl]-1H-imidazole-5-carboxamide]	150 nM	46 nM	≥ 50000 nM	
Cc1cc(N2CC[C@]3(CC[C@@H](NC(=O)c4[nH]cnc4C(=O)NC4CC4)CC3)C2=O)c(Cl)cc1F [Example 295, N^5-[(trans)-2-(2-chloro-4-fluoro-5-methylphenyl)-1-oxo-2-azaspiro[4.5]dec-8-yl]-N^4-cyclopropyl-1H-imidazole-4,5-dicarboxamide]	9.2 nM	1 nM	12000 nM	
Cc1cc(N2CC[C@]3(CC[C@@H](NC(=O)c4[nH]cnc4C(=O)N4CC(OC(F)F)C4)CC3)C2=O)c(Cl)cc1F [Example 296, N-[(trans)-2-(2-chloro-4-fluoro-5-methylphenyl)-1-oxo-2-azaspiro[4.5]dec-8-yl]-4-{[3-(difluoromethoxy)azetidin-1-yl]carbonyl}-1H-imidazole-5-carboxamide]	8.3 nM	1.3 nM	35000 nM	
Cc1cc(N2CCC[C@]3(CC[C@@H](NC(=O)c4[nH]cnc4C(=O)N4CC(F)C4)CC3)C2=O)c(Cl)cc1F [Example 303, N-[(trans)-2-(2-chloro-4-fluoro-5-methylphenyl)-1-oxo-2-azaspiro[5.5]undec-9-yl]-4-[(3-fluoroazetidin-1-yl)carbonyl]-1H-imidazole-5-carboxamide]	32 nM	14 nM	≥ 500 nM	
CNC(=O)c1nc[nH]c1C(=O)N[C@H]1CC[C@@]2(CCCN(c3cc(C)c(F)cc3Cl)C2=O)CC1 [Example 304, N^5-[(trans)-2-(2-chloro-4-fluoro-5-methylphenyl)-1-oxo-2-azaspiro[5.5]undec-9-yl]-N^4-methyl-1H-imidazole-4,5-dicarboxamide]	47 nM	11 nM	≥ 500 nM	
CCNC(=O)c1nc[nH]c1C(=O)N[C@H]1CC[C@@]2(CCCN(c3cc(C)c(F)cc3Cl)C2=O)CC1 [Example 305, N^5-[(trans)-2-(2-chloro-4-fluoro-5-methylphenyl)-1-oxo-2-azaspiro[5.5]undec-9-yl]-N^4-ethyl-1H-imidazole-4,5-dicarboxamide]	65 nM	8.1 nM	≥ 500 nM	
COCCNC(=O)c1nc[nH]c1C(=O)N[C@H]1CC[C@@]2(CCCN(c3cc(C)c(F)cc3Cl)C2=O)CC1 [Example 306, N^5-[(trans)-2-(2-chloro-4-fluoro-5-methylphenyl)-1-oxo-2-azaspiro[5.5]undec-9-yl]-N^4-(2-methoxyethyl)-1H-imidazole-4,5-dicarboxamide]	67 nM	12 nM	≥ 500 nM	
Cc1cc(N2CCC[C@]3(CC[C@@H](NC(=O)c4[nH]cnc4C(=O)NC4CC4)CC3)C2=O)c(Cl)cc1F [Example 308, N^5-[(trans)-2-(2-chloro-4-fluoro-5-methylphenyl)-1-oxo-2-azaspiro[5.5]undec-9-yl]-N^4-cyclopropyl-1H-imidazole-4,5-dicarboxamide]	110 nM	5.4 nM	11000 nM	
Cc1cc(N2CCC[C@]3(CC[C@@H](NC(=O)c4[nH]cnc4C(N)=O)CC3)C2=O)c(Cl)cc1F [Example 309, N^5-[(trans)-2-(2-chloro-4-fluoro-5-methylphenyl)-1-oxo-2-azaspiro[5.5]undec-9-yl]-1H-imidazole-4,5-dicarboxamide]	45 nM	100 nM	≥ 50000 nM	
Cc1cc(N2CCC[C@]3(CC[C@@H](NC(=O)c4[nH]cnc4C(=O)NC(C)C)CC3)C2=O)c(Cl)cc1F [Example 310, N^5-[(trans)-2-(2-chloro-4-fluoro-5-methylphenyl)-1-oxo-2-azaspiro[5.5]undec-9-yl]-N^4-(propan-2-yl)-1H-imidazole-4,5-dicarboxamide]	270 nM	15 nM	13000 nM	
Cc1cc(N2CCC[C@]3(CC[C@@H](NC(=O)c4[nH]cnc4C(=O)N4CC5(COC5)C4)CC3)C2=O)c(Cl)cc1F [Example 311, N-[(trans)-2-(2-chloro-4-fluoro-5-methylphenyl)-1-oxo-2-azaspiro[5.5]undec-9-yl]-4-(2-oxa-6-azaspiro[3.3]hept-6-ylcarbonyl)-1H-imidazole-5-carboxamide]	41 nM	30 nM	≥ 50000 nM	
Cc1cc(N2CCC[C@]3(CC[C@@H](NC(=O)c4[nH]cnc4C(=O)NCCN4CCC(C)CC4)CC3)C2=O)c(Cl)cc1F [Example 312, N^5-[(trans)-2-(2-chloro-4-fluoro-5-methylphenyl)-1-oxo-2-azaspiro[5.5]undec-9-yl]-N^4-[2-(4-methylpiperidin-1-yl)ethyl]-1H-imidazole-4,5-dicarboxamide]	4.1 nM	24 nM	≥ 500 nM	
O=C(N[C@H]1CC[C@@]2(CCCN(c3cc(F)c(F)cc3Cl)C2=O)CC1)c1cnn2cccnc12 [Example 313, N-[(trans)-2-(2-chloro-4,5-difluorophenyl)-1-oxo-2-azaspiro[5.5]undec-9-yl]pyrazolo[1,5-a]pyrimidine-3-carboxamide]	10 nM	2.7 nM	≥ 500 nM	
O=C(N[C@H]1CC[C@@]2(CCCN(c3cc(F)c(F)cc3Cl)C2=O)CC1)c1cnc2cccnn12 [Example 314, N-[(trans)-2-(2-chloro-4,5-difluorophenyl)-1-oxo-2-azaspiro[5.5]undec-9-yl]imidazo[1,2-b]pyridazine-3-carboxamide]	22 nM	6.3 nM	≥ 500 nM	
Cc1cc(C)n2ncc(C(=O)N[C@H]3CC[C@@]4(CCCN(c5cc(F)c(F)cc5Cl)C4=O)CC3)c2n1 [Example 315, N-[(trans)-2-(2-chloro-4,5-difluorophenyl)-1-oxo-2-azaspiro[5.5]undec-9-yl]-5,7-dimethylpyrazolo[1,5-a]pyrimidine-3-carboxamide]	14 nM	3.9 nM	≥ 500 nM	
O=C(N[C@H]1CC[C@@]2(CCCN(c3cc(F)c(F)cc3Cl)C2=O)CC1)c1[nH]cnc1C(=O)N1CC(F)C1 [Example 316, N-[(trans)-2-(2-chloro-4,5-difluorophenyl)-1-oxo-2-azaspiro[5.5]undec-9-yl]-4-[(3-fluoroazetidin-1-yl)carbonyl]-1H-imidazole-5-carboxamide]	5 nM	1.6 nM	≥ 500 nM	
CNC(=O)c1nc[nH]c1C(=O)N[C@H]1CC[C@@]2(CCCN(c3cc(F)c(F)cc3Cl)C2=O)CC1 [Example 317, N^5-[(trans)-2-(2-chloro-4,5-difluorophenyl)-1-oxo-2-azaspiro[5.5]undec-9-yl]-N^4-methyl-1H-imidazole-4,5-dicarboxamide]	8.7 nM	1.4 nM	≥ 500 nM	
CCNC(=O)c1nc[nH]c1C(=O)N[C@H]1CC[C@@]2(CCCN(c3cc(F)c(F)cc3Cl)C2=O)CC1 [Example 318, N^5-[(trans)-2-(2-chloro-4,5-difluorophenyl)-1-oxo-2-azaspiro[5.5]undec-9-yl]-N^4-ethyl-1H-imidazole-4,5-dicarboxamide]	8.7 nM	2 nM	≥ 500 nM	
CC(C)n1nc(C(=O)N[C@H]2CC[C@@]3(CCN(c4ccc(F)cc4Cl)C3=O)CC2)c2ccc(Br)cc21 [Example 319, 6-bromo-N-[(trans)-2-(2-chloro-4-fluorophenyl)-1-oxo-2-azaspiro[4.5]dec-8-yl]-1-isopropyl-1H-indazole-3-carboxamide]	> 10000 nM		≥ 50000 nM	≥ 50000 nM

Reference: patent US20180148418A1, “AMIDO-SUBSTITUTED CYCLOHEXANE DERIVATIVES” (Bayer Pharma Aktiengesellschaft, priority 2015, published 2018)
